Source: PubChem BioAssay (NCI)
Where “and” joins values, the source holds several entries; their conditions need not be identical. Equal entries are not always repeated.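 How tested: cells in 96-well plates exposed to compound for 48 hours at five concentrations. GI50 marks 50% less growth. TGI marks complete inhibition of growth.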

Key:
Test in all cases: DTP human tumour cell line panel, 48 h
NCI-H460 lung = test system: NCI-H460 lung
CAKI-1 renal = test system: CAKI-1 renal
EKVX NSCLC = test system: EKVX NSCLC
SK-MEL-5 melanoma = test system: SK-MEL-5 melanoma
SN12C renal = test system: SN12C renal
OVCAR-4 ovarian = test system: OVCAR-4 ovarian
SF-539 CNS = test system: SF-539 CNS
U251 CNS = test system: U251 CNS
T-47D breast = test system: T-47D breast
NCI/ADR-RES ovarian = test system: NCI/ADR-RES ovarian

Structure (SMILES)	GI50 (NCI-H460 lung)	TGI (NCI-H460 lung)	GI50 (CAKI-1 renal)	TGI (CAKI-1 renal)	GI50 (EKVX NSCLC)	TGI (EKVX NSCLC)	GI50 (SK-MEL-5 melanoma)	TGI (SK-MEL-5 melanoma)	GI50 (SN12C renal)	TGI (SN12C renal)	GI50 (OVCAR-4 ovarian)	TGI (OVCAR-4 ovarian)	GI50 (SF-539 CNS)	TGI (SF-539 CNS)	GI50 (U251 CNS)	TGI (U251 CNS)	GI50 (T-47D breast)	TGI (T-47D breast)	GI50 (NCI/ADR-RES ovarian)	TGI (NCI/ADR-RES ovarian)
OCCCN=NNc1ccc(-c2nc3ccccc3[nH]2)cc1	4.65 µM	> 100 µM	15.4 µM	39.3 µM	15.5 µM	52.6 µM	15.6 µM	88.6 µM	14.3 µM	46.6 µM	3.78 µM	> 100 µM	5.97 µM	28.4 µM	2.07 µM	4.76 µM	2.15 µM	6.65 µM		
COc1ccccc1-n1c(-c2cc(O)ccc2C)cn2c3c(=O)[nH]c(=O)n(C)c3nc12	> 100 µM	> 100 µM	2.95 µM	7.05 µM	10.1 µM	> 100 µM	53.2 µM	> 100 µM	4.85 µM	> 100 µM	> 100 µM	> 100 µM	8.86 µM	> 100 µM	22.2 µM	> 100 µM	42.4 µM	> 100 µM	> 100 µM	> 100 µM
CC1/C=C/C=C/C=C/C=C/C=C/C=C/C=C/C(O[C@@H]2O[C@H](C)[C@H](O)[C@@H](O)[C@@H]2N)CC(O)C(C(=O)O)C(O)CC(=O)CC(O)CC(O)CC(O)CC(=O)CCCC(=O)CC(=O)OC1C(C)CC(C)C(O)CC(=O)c1ccc(N)cc1 (stereo partly specified)	0.0611 µM and 0.229 µM	0.11 µM and 0.633 µM	0.0583 µM and 0.186 µM	0.107 µM and 0.357 µM	0.0644 µM and 0.221 µM	0.126 µM and 0.484 µM	0.0522 µM and 0.212 µM	0.0961 µM and 0.496 µM	0.0586 µM and 0.174 µM	0.114 µM and 0.317 µM	0.0693 µM and 0.246 µM	0.154 µM and 0.697 µM	0.0604 µM and 0.481 µM		0.0552 µM and 0.204 µM	0.0996 µM and 0.49 µM	0.0722 µM and 0.318 µM	0.188 µM and 1.24 µM	0.0626 µM and 0.209 µM	0.125 µM and 0.474 µM
CC(=O)OC1CC(n2cc(F)c(=O)[nH]c2=O)OC1CO (stereo unspecified)		> 100 µM		> 100 µM		> 100 µM		16.2 µM		> 100 µM		> 100 µM		5.02 µM		> 100 µM		> 100 µM		> 100 µM
CC(C)C1OC(=O)C=C1Sc1ccccc1 (stereo unspecified)		> 100 µM		> 100 µM		> 100 µM		> 100 µM		> 100 µM		> 100 µM		> 100 µM		> 100 µM		> 100 µM		
COc1cc(/C=C/c2cc(/C=C/c3ccc(O)c(OC)c3)n(-c3c(C)cccc3C)c(=O)n2)ccc1O	0.683 µM	4.37 µM	0.859 µM	14.9 µM	1.86 µM	6.73 µM	0.559 µM	1.9 µM	1.66 µM	> 100 µM	0.798 µM	8.41 µM			0.635 µM	4.08 µM	1.34 µM	4.25 µM	1.42 µM	5.77 µM
COc1ccc(-c2ccc(/C=N/n3c(COc4ccccc4Cl)nn(CN4CCN(C)CC4)c3=S)o2)c([N+](=O)[O-])c1	14.7 µM	37.6 µM	5.19 µM	14.6 µM	21.5 µM	70.5 µM			17.9 µM	35.2 µM			19.7 µM	39.2 µM	13.2 µM	27.8 µM	22.1 µM	77.1 µM	18.5 µM	41.6 µM
CCOc1ccc([C@@H]2[C@@H](Oc3ccccc3)C(=O)N2c2cc(OC)c(OC)c(OC)c2)cc1	0.285 µM	> 100 µM			0.0937 µM	> 100 µM	0.0395 µM	1.16 µM	0.263 µM	> 100 µM	0.928 µM	> 100 µM			0.0462 µM	> 100 µM	9.48 µM	> 100 µM	0.06 µM	> 100 µM
CN(C)c1ccc(C(=C2C=CC(=[N+](C)C)C=C2)c2ccc(N(C)C)cc2)cc1 (tested in a mixture with another compound)			0.276 µM	1.38 µM	0.0725 µM	6.45 µM	0.133 µM	0.289 µM			0.183 µM	1.32 µM	0.0643 µM	0.748 µM		1.34 µM	0.0389 µM	0.655 µM	0.912 µM	
CC[C@H]1CN2CCc3cc(OC)c(OC)cc3[C@@H]2C[C@@H]1C[C@H]1NCCc2cc(O)c(OC)cc21		0.0586 µM and 0.0651 µM and 0.186 µM		0.0847 µM and 0.375 µM		0.0779 µM and 0.0344 µM and 0.0322 µM		0.0424 µM and 0.0157 µM and 0.114 µM		0.0787 µM and 0.552 µM				0.0648 µM and < 0.0237 µM and 0.0511 µM			0.022 µM	0.0776 µM		> 100 µM and 10.7 µM
Cc1ccc(NC(=O)NC(=O)c2ccc([N+](=O)[O-])cc2[N+](=O)[O-])cc1Oc1ncc(Cl)cn1		14.8 µM		62.9 µM				0.819 µM		16.6 µM		26 µM		0.91 µM		3.83 µM		40.6 µM		
O=P(O)(O)c1ccccc1 (tested in a mixture with another compound)		> 100 µM		> 100 µM		> 100 µM		> 100 µM		> 100 µM		> 100 µM				> 100 µM		> 100 µM		> 100 µM
COc1cccc(C2C(C#N)=C(N)Oc3cc(N)ccc32)c1 (stereo unspecified)	0.368 µM	> 87 µM	0.47 µM	> 100 µM	0.854 µM	> 100 µM	0.396 µM	> 61.8 µM	0.689 µM	> 100 µM	5.14 µM	> 100 µM	0.343 µM	1.37 µM	0.369 µM				0.346 µM	4.38 µM
CCn1c2c(n(CC)c1=S)-c1c(n(CC)c(=S)n1CC)SSSS2		> 77.9 µM		33.1 µM		21.4 µM		43.1 µM		24 µM		20.1 µM		28.2 µM		45.5 µM		5.16 µM		
CCSCC(N)C(=O)O (stereo unspecified)		> 100 µM		> 100 µM		> 100 µM		> 100 µM		> 100 µM		> 100 µM				> 100 µM		> 100 µM		> 100 µM
CSc1cnn(CCC#N)c(=O)n1				> 100 µM		> 100 µM		> 100 µM		> 100 µM				> 100 µM		> 100 µM		> 100 µM		
Cc1cc2cc3cc(C)c(N(C)C)cc3nc2cc1N(C)C	2.37 µM	11.5 µM	2.22 µM	25.3 µM			1.73 µM	4.71 µM	3.22 µM	29.3 µM	2.25 µM	19.5 µM	3.08 µM	12.7 µM	1.42 µM	> 100 µM	1.6 µM	> 100 µM	31.7 µM	> 100 µM
